In this test the test system is Lycoris aurea. Put plainly: Galanthamine release of plants subjected to chemical inducer treatment (LC-MS of lyophilized medium). The class given is in vivo. The note with it: for Amounts of galanthamine released into the medium: MS medium with 25 μM chemical inducer, whole plants of Lycoris aurea. Here is the method: MS mediums containing chemical inducers (chitin (CA), salicylic acid (SA) and methyl jasmonate (MJ)) (final concentration of the chemical inducer is 25 μM) were prepared. Since the chemical inducers could not be high-strength autoclaved, after the preparations of the chemical inducers at room temperature were completed, sterilization by filtration was performed on the chemical inducers in a laminar flow. In the blank group, the medium contained no agent.
Healthy plants of Lycoris aurea with leaves and root with a bulb diameter of 0.6-0.8 cm were selected and withered epidermis on the bulb thereof was removed. The plant mentioned above was placed in a test tube having MS medium containing a chemical inducer and cultured under an illumination of 3000-4000 Lux with illumination time 16 hours an dark time 8 hours at an ambient temperature of 25-27° C.
30 mL of medium was recovered on the Day 0, Day 3, Day 7, Day 14, Day 28 and Day 35 of the culturing. The recovered medium was lyophilized to form a powder. A liquid chromatography-mass spectrometry analysis was performed on the obtained powder to determine the content of galanthamine therein to investigate the effect of the chemical stimulation treatment mentioned above on the plant that produces galanthamine and releases it into the medium.

As for chitin, the “Amounts of galanthamine released into the medium” value (from here on “Amounts”) (Day 0 of culturing) was found to be 0 ppm, the “Amounts” value (Day 3 of culturing) is 0.0015 ppm, the “Amounts” value (Day 7 of culturing) is recorded as 0.0001 ppm and the “Amounts” value (Day 14 of culturing) is given as 0.74 ppm.
With `O=C(O)c1ccccc1O` [Salicylic acid, salicylic acid], the “Amounts” value reads like this: (Day 0 of culturing) 0 ppm; (Day 3 of culturing) 0.0183 ppm; (Day 7 of culturing) 0.0077 ppm; (Day 14 of culturing) 0.0142 ppm; (Day 28 of culturing) 0.36 ppm; (Day 35 of culturing) 1.01 ppm.
As to `CC/C=C\CC1C(=O)CCC1CC(=O)OC` (centres unmarked) [Methyl jasmonate, methyl jasmonate], the “Amounts” value is, setting by setting: (Day 0 of culturing) 0 ppm; (Day 3 of culturing) 0.0153 ppm; (Day 7 of culturing) 0.0312 ppm; (Day 14 of culturing) 0.0066 ppm; (Day 28 of culturing) 2.72 ppm; (Day 35 of culturing) 0.9 ppm. Besides, the “Effect on production and release of galanthamine for the plant (comparison of chemical inducers)” value (Table 2 and FIG. 7, 25 μM chemical inducer, Lycoris aurea) is recorded as “best effect”.
